We go through twelve compounds from US8796289B2 (AbbVie Inc., priority 2011, dated 2014).

Structures are written as SMILES.

Chain of GST-tagged-Wee1 kinase (P30291 whole entry): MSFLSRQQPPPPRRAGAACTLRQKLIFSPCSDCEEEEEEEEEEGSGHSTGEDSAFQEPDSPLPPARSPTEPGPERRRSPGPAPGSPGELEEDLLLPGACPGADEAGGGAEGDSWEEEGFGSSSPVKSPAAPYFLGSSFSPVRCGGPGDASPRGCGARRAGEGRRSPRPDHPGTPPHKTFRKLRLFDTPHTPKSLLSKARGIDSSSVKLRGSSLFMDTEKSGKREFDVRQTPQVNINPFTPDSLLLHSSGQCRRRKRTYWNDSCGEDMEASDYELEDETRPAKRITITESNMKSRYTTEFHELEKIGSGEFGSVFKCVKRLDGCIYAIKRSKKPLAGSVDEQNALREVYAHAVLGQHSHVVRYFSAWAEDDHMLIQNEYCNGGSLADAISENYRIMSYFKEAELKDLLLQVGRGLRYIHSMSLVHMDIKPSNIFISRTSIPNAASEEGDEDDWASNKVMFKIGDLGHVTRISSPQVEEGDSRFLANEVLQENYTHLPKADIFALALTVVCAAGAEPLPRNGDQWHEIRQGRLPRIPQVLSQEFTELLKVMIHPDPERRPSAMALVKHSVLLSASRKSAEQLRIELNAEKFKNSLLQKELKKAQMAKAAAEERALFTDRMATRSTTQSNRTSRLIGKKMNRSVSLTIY

This test addresses GST-tagged-Wee1 kinase (Homo sapiens, UniProt P30291). In words: Wee1 time-resolved fluorescence equilibrium binding assay (displacement of Oregon Green-labeled ATP-competitive kinase probe). How it is done:
Wee1 kinase was assayed using a time-resolved fluorescence equilibrium binding assay monitoring displacement of a rapidly reversible Oregon Green-labeled ATP-competitive kinase probe (N-(2-(2-(2-(4-(4-(5-chloro-4-(2-(1-hydroxycyclobutyl)thiazol-5-yl)-1H-pyrrolo[2,3-b]pyridin-2-yl)phenyl)piperazin-1-yl)ethoxy)ethoxy)ethyl)-2′,7′-difluoro-3′,6′-dihydroxy-3-oxo-3H-spiro[isobenzofuran-1,9′-xanthene]-5-carboxamide) by competitive Wee1 inhibitors.
Regarding `CN1CCN(c2ccc(Nc3ncc4c(=O)n(-c5ccccc5)nc(-c5cccc(F)c5)c4n3)cc2)CC1` [Example 82, 8-(3-fluorophenyl)-2-{[4-(4-methylpiperazin-1-yl)phenyl]amino}-6-phenylpyrimido[4,5-d]pyridazin-5(6H)-one], the affinity, expressed as Ki, was 9 nM.

Take `CN1Cc2cc(Nc3ncc4c(=O)n(-c5c(Cl)cccc5Cl)nc(-c5ccccn5)c4n3)ccc2C2(CC2)C1` [Example 104, 6-(2,6-dichlorophenyl)-2-[(2′-methyl-2′,3′-dihydro-1′H-spiro[cyclopropane-1,4′-isoquinolin]-7′-yl)amino]-8-(pyridin-2-yl)pyrimido[4,5-d]pyridazin-5(6H)-one]: the affinity corresponds to a Ki of 0.6 nM. This Ki is about 15-fold lower than that of the compound before. As for `CN1CCN(c2ccc(Nc3ncc4c(=O)n(-c5c(Cl)cccc5Cl)nc(-c5ccc(Br)cc5)c4n3)cc2)CC1` [Example 276, 8-(4-bromophenyl)-6-(2,6-dichlorophenyl)-2-{[4-(4-methylpiperazin-1-yl)phenyl]amino}pyrimido[4,5-d]pyridazin-5(6H)-one], the figure is 1.1 nM. As for `Cc1ccccc1-n1nc(Cc2ccccc2)c2nc(Nc3ccc(N4CCN(C)CC4)cc3)ncc2c1=O` [Example 20, 8-benzyl-6-(2-methylphenyl)-2-{[4-(4-methylpiperazin-1-yl)phenyl]amino}pyrimido[4,5-d]pyridazin-5(6H)-one], the figure is 19 nM; as for `Cc1nn(-c2c(Cl)cccc2Cl)c(=O)c2cnc(Nc3cccc(C(=O)NC4CCN(C)CC4)c3)nc12` [Example 523, 3-{[6-(2,6-dichlorophenyl)-8-methyl-5-oxo-5,6-dihydropyrimido[4,5-d]pyridazin-2-yl]amino}-N-(1-methylpiperidin-4-yl)benzamide], 0.5 nM; as for `CN1CCC(n2nc(-c3ccccn3)c3nc(Nc4ccc(N5CCNCC5)cc4)ncc3c2=O)CC1` [Example 322, 6-(1-methylpiperidin-4-yl)-2-{[4-(piperazin-1-yl)phenyl]amino}-8-(pyridin-2-yl)pyrimido[4,5-d]pyridazin-5(6H)-one], greater than 3140 nM. To `CN1CCN(c2ccc(Nc3ncc4c(=O)n(-c5ccccc5)nc(-c5ccncc5)c4n3)cc2)CC1` [Example 154, 2-{[4-(4-methylpiperazin-1-yl)phenyl]amino}-6-phenyl-8-(pyridin-4-yl)pyrimido[4,5-d]pyridazin-5(6H)-one] belongs 9 nM; to `CN1CCN(c2ccc(Nc3ncc4c(=O)n(-c5c(Cl)cccc5Cl)nc(-c5ccco5)c4n3)cc2)CC1` [Example 69, 6-(2,6-dichlorophenyl)-8-(2-furyl)-2-{[4-(4-methylpiperazin-1-yl)phenyl]amino}pyrimido[4,5-d]pyridazin-5(6H)-one], 0.06 nM; to `CCc1nn(-c2c(Cl)cccc2Cl)c(=O)c2cnc(Nc3ccc(N4CCN(C)CC4)cc3)nc12` [Example 388, 6-(2,6-dichlorophenyl)-8-ethyl-2-{[4-(4-methylpiperazin-1-yl)phenyl]amino}pyrimido[4,5-d]pyridazin-5(6H)-one], 0.33 nM.

Take `NCCn1ccc(-c2nn(-c3c(Cl)cccc3Cl)c(=O)c3cnc(Nc4ccc(N5CCNCC5)cc4)nc23)n1` [Example 259, 8-[1-(2-aminoethyl)-1H-pyrazol-3-yl]-6-(2,6-dichlorophenyl)-2-{[4-(piperazin-1-yl)phenyl]amino}pyrimido[4,5-d]pyridazin-5(6H)-one]: the Ki – broadly, the dissociation constant of the complex between target and ligand, obtained from inhibition or displacement – is 0.2 nM.

Regarding `CS(=O)(=O)N1CCN(c2ccc(Nc3ncc4c(=O)n(-c5c(Cl)cccc5Cl)nc(-c5ccccn5)c4n3)cc2)CC1` [Example 376, 6-(2,6-dichlorophenyl)-2-({4-[4-(methylsulfonyl)piperazin-1-yl]phenyl}amino)-8-(pyridin-2-yl)pyrimido[4,5-d]pyridazin-5(6H)-one], affinity was put at a Ki of 1.3 nM. As for `Cc1cccc(Cl)c1-n1nc(C)c2nc(Nc3ccc(OC4CCN(C)CC4)cc3)ncc2c1=O` [Example 502, 6-(2-chloro-6-methylphenyl)-8-methyl-2-({4-[(1-methylpiperidin-4-yl)oxy]phenyl}amino)pyrimido[4,5-d]pyridazin-5(6H)-one], the figure is 0.36 nM.
